Results taken from ChEMBL document CHEMBL5291721, “A preclinical secondary pharmacology resource illuminates target-adverse drug reaction associations of marketed drugs” (Nat Commun, 2023).

How the values were obtained:
Estrogen receptor = target: T1, Estrogen receptor (Homo sapiens, UniProt P03372)
T1 sequence (P03372 whole entry): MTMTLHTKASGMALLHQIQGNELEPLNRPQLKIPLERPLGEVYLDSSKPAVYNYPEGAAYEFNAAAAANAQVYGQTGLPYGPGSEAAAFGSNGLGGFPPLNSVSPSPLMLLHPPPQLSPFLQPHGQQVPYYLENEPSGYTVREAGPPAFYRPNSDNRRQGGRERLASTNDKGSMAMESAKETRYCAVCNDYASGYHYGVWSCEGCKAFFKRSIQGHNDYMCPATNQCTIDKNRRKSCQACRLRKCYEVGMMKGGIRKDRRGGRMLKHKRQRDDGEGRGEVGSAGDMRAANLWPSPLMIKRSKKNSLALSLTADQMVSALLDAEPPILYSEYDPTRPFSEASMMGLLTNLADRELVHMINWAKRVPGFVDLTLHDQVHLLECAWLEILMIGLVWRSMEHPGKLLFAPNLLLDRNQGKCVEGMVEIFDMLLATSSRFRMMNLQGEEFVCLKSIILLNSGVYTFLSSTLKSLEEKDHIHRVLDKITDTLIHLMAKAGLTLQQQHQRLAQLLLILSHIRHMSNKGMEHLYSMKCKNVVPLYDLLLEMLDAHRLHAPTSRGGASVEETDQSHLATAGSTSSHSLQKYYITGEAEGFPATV

D(1A) dopamine receptor = D(1A) dopamine receptor (Homo sapiens, UniProt P21728)
Sequence of D(1A) dopamine receptor (P21728 whole entry): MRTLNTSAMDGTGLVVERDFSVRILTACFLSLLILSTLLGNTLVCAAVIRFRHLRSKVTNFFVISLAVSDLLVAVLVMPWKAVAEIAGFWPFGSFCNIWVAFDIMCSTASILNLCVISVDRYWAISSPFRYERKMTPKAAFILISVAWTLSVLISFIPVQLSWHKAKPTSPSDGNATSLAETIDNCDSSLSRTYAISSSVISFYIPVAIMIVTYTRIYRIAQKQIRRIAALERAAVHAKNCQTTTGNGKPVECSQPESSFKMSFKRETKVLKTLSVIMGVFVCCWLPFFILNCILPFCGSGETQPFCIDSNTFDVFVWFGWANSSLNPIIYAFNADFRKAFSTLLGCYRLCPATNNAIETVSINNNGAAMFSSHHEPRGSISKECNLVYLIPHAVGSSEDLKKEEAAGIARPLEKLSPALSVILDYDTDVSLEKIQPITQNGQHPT

Cannabinoid receptor 1 = Cannabinoid receptor 1 (Homo sapiens, UniProt P21554)
Sequence of Cannabinoid receptor 1 (P21554 whole entry): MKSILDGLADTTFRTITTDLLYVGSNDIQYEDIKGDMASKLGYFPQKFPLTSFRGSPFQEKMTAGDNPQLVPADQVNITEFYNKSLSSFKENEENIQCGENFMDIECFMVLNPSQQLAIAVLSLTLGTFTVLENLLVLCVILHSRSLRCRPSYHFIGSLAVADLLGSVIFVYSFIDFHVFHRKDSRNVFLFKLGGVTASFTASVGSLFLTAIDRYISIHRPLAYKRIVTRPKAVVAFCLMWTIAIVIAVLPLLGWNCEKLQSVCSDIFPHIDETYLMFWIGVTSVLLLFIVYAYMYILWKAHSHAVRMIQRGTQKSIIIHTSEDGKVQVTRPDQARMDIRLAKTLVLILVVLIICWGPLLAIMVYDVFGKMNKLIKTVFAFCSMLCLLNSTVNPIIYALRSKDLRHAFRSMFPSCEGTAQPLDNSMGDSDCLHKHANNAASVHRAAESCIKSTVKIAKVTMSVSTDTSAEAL

Melanocortin receptor 4 = Melanocortin receptor 4 (Homo sapiens, UniProt P32245)
Sequence of Melanocortin receptor 4 (P32245 whole entry): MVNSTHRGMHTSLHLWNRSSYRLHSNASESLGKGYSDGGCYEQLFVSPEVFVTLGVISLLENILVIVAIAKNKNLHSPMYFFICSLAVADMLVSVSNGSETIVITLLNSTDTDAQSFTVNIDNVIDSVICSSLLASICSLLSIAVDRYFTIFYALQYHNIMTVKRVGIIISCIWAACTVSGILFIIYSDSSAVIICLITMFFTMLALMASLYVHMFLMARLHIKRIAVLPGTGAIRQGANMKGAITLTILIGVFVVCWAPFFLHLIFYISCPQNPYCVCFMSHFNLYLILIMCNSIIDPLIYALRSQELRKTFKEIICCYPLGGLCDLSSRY

[1] = target: T2, Corticotropin-releasing factor receptor 1 (Homo sapiens, UniProt P34998)
T2 sequence (P34998 whole entry): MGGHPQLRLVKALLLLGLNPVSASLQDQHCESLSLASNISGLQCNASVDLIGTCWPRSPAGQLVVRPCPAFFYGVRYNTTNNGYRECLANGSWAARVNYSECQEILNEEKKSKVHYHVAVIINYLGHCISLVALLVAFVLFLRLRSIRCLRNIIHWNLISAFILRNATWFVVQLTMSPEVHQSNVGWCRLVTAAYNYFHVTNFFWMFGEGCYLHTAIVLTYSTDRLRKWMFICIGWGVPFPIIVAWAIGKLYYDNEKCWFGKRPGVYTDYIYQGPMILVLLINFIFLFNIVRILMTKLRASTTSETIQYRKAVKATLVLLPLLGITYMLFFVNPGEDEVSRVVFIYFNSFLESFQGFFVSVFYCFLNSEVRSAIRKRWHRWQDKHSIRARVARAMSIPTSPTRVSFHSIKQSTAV

[2] = target: 5-hydroxytryptamine receptor 2B (Homo sapiens, UniProt P41595)
Sequence of 5-hydroxytryptamine receptor 2B (P41595 whole entry): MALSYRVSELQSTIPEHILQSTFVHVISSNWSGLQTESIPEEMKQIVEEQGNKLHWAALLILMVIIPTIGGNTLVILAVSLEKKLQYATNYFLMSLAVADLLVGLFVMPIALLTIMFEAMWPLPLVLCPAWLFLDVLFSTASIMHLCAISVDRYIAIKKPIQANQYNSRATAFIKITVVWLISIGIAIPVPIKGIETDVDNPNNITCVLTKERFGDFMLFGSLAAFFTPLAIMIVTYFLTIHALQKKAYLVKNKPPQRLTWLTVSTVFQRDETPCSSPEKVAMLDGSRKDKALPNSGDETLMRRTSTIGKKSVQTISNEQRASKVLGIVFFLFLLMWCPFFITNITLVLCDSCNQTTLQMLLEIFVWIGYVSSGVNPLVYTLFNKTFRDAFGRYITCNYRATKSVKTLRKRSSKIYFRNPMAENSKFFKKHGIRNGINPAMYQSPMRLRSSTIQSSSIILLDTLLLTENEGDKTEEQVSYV

[3] = target: T3, Gastric inhibitory polypeptide receptor (Homo sapiens, UniProt P48546)
T3 sequence (P48546 whole entry): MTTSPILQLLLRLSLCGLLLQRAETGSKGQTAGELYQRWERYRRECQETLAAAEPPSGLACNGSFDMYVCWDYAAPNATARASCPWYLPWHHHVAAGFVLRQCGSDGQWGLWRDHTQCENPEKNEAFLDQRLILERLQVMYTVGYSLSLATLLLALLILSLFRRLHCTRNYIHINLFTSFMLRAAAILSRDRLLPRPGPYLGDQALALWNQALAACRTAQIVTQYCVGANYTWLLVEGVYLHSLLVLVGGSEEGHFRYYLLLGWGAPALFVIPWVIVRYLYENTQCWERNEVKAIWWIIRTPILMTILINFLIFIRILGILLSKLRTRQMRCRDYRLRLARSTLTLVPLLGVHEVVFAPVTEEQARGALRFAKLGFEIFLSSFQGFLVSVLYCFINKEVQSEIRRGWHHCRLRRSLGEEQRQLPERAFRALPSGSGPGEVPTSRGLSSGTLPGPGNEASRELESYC

[4] = target: 5-hydroxytryptamine receptor 2A (Homo sapiens, UniProt P28223); type: functional, cell-based
Sequence of 5-hydroxytryptamine receptor 2A (P28223 whole entry): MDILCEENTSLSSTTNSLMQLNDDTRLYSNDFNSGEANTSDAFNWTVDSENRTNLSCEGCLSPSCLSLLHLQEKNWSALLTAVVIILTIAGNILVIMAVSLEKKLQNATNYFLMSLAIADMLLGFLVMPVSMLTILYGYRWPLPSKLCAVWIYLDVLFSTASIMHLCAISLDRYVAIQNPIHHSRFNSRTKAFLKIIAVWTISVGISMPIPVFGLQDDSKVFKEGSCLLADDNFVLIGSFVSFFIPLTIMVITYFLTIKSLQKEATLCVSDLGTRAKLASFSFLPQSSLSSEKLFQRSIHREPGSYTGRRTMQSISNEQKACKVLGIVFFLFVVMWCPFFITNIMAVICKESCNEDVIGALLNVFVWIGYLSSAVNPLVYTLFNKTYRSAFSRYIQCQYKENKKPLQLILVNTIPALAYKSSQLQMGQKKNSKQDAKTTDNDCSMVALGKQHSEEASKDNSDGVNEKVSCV

Histamine H1 receptor = Histamine H1 receptor (Homo sapiens, UniProt P35367)
Sequence of Histamine H1 receptor (P35367 whole entry): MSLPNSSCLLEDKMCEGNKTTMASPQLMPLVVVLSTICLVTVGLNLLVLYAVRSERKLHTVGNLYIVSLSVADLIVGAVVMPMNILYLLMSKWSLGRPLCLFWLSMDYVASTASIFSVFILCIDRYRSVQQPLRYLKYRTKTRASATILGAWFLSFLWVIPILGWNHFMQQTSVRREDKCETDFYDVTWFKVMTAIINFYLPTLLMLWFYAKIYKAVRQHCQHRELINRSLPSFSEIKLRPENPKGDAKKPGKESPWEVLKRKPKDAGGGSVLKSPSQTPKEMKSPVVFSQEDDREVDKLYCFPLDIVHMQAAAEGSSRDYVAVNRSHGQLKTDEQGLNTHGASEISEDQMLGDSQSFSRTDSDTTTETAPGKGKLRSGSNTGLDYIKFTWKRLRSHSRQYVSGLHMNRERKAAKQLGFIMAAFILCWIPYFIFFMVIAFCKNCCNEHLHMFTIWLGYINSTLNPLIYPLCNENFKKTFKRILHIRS

[5] = target: T4, Alpha-2B adrenergic receptor (Homo sapiens, UniProt P18089)
T4 sequence (P18089 whole entry): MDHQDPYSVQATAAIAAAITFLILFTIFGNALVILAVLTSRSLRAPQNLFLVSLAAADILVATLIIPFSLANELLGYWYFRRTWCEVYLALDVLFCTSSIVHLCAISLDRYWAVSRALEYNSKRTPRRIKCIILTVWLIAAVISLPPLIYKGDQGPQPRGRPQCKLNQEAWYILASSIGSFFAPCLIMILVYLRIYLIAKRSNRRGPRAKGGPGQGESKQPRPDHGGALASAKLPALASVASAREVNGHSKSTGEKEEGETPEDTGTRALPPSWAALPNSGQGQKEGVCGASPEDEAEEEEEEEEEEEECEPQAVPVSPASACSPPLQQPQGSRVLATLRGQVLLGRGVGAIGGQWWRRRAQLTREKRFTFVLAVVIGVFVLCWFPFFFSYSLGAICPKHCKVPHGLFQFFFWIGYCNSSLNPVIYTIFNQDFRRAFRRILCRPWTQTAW

[6] = target: Muscarinic acetylcholine receptor M3 (Homo sapiens, UniProt P20309)
Sequence of Muscarinic acetylcholine receptor M3 (P20309 whole entry): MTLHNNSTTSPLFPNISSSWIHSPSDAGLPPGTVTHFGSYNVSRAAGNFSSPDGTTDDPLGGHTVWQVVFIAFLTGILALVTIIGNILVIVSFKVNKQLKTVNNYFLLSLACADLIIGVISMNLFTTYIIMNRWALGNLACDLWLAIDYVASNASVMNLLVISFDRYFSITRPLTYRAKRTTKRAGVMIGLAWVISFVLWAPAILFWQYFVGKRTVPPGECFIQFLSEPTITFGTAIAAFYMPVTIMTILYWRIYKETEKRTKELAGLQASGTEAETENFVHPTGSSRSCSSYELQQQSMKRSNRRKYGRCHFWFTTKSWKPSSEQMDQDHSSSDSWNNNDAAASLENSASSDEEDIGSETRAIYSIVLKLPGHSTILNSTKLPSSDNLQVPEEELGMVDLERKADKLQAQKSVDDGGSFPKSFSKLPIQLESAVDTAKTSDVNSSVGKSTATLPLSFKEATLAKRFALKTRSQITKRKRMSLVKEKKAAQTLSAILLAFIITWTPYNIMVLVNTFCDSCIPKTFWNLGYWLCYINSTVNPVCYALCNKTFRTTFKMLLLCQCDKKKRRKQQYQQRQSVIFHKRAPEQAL

[7] = target: T5, Peroxisome proliferator-activated receptor gamma (Homo sapiens, UniProt P37231); type: functional
T5 sequence (P37231 whole entry): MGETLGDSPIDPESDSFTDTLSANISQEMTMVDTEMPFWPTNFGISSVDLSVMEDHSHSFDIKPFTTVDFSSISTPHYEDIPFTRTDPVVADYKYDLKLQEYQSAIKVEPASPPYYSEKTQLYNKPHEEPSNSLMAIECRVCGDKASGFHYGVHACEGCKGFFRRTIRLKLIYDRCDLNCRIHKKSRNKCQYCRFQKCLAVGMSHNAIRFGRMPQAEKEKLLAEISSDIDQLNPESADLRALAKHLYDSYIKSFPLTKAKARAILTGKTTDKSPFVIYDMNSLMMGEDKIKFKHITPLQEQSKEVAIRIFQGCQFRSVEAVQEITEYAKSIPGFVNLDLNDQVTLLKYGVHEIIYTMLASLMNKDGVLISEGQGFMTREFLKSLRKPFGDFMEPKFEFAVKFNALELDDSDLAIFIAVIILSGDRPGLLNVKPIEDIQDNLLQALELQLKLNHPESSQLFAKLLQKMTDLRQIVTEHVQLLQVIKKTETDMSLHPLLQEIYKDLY
Also: assay procedure not described here.

Structure (SMILES) | AC50 (Estrogen receptor) | AC50 (D(1A) dopamine receptor) | AC50 (Cannabinoid receptor 1) | AC50 (Melanocortin receptor 4) | AC50 [1] | AC50 [2] | AC50 [3] | AC50 [4] | AC50 (Histamine H1 receptor) | AC50 [5] | AC50 [6] | AC50 [7]
CC(/C=C1\SC(=S)N(CC(=O)O)C1=O)=C\c1ccccc1 | > 30 µM | – | – | – | – | – | – | – | – | – | – | –
CC1(C)S[C@@H]2[C@H](NC(=O)[C@H](N)c3ccc(O)cc3)C(=O)N2[C@H]1C(=O)O [AMOXICILLIN] | – | > 10 µM | > 30 µM | > 30 µM | > 30 µM | > 10 µM | > 30 µM | – | – | – | – | –
O=C1CN2Cc3c(ccc(Cl)c3Cl)N=C2N1 [ANAGRELIDE] | > 30 µM | – | > 10 µM | > 30 µM | – | – | – | > 30 µM | > 10 µM | > 10 µM | > 10 µM | –
CNCC[C@@H](Oc1ccccc1C)c1ccccc1 [ATOMOXETINE] | > 30 µM | – | – | – | – | – | – | – | – | 23 µM | > 30 µM | –
CCc1oc2ccccc2c1C(=O)c1cc(Br)c(O)c(Br)c1 [BENZBROMARONE] | > 30 µM | – | > 10 µM | > 30 µM | – | – | – | – | – | – | – | –
C=C(C)[C@@H]1CCC(C)=C[C@H]1c1c(O)cc(CCCCC)cc1O [CANNABIDIOL] | – | – | – | – | – | – | – | > 30 µM | > 30 µM | > 30 µM | > 30 µM | –
[H]/N=C(\N/C(=N/[H])NCCCCCCNC(=N)NC(=N)Nc1ccc(Cl)cc1)Nc1ccc(Cl)cc1 [CHLORHEXIDINE] | > 30 µM | – | 3.07 µM | 0.271 µM | – | 0.683 µM | – | > 10 µM | > 10 µM | 2.4 µM | 7.8 µM | –
Clc1cccc(Cl)c1N=C1NCCN1 [CLONIDINE] | – | > 10 µM | > 10 µM | > 30 µM | > 30 µM | > 10 µM | > 30 µM | – | – | – | – | –
CN1C[C@H](C(=O)N[C@]2(C)O[C@@]3(O)[C@@H]4CCCN4C(=O)[C@H](Cc4ccccc4)N3C2=O)C[C@@H]2c3cccc4[nH]cc(c34)C[C@H]21 [DIHYDROERGOTAMINE] | > 30 µM | 5.47 µM | > 10 µM | > 30 µM | > 30 µM | 0.0638 µM | > 30 µM | – | – | – | – | –
CNCC[C@H](Oc1cccc2ccccc12)c1cccs1 [DULOXETINE] | – | – | > 10 µM | 17.8 µM | – | – | – | – | 8.8 µM | 3.9 µM | > 30 µM | –
CC1(C)O[C@@H]2C[C@H]3[C@@H]4C[C@H](F)C5=CC(=O)C=C[C@]5(C)[C@H]4[C@@H](O)C[C@]3(C)[C@]2(C(=O)CO)O1 [FLUNISOLIDE] | – | – | – | – | – | – | – | – | – | – | – | > 30 µM
Nc1nc(O)c2ncn(COC(CO)CO)c2n1 [GANCICLOVIR] | > 30 µM | – | – | – | – | – | – | – | – | – | – | –
Cc1cnc(NC(=O)C2=C(O)c3ccccc3S(=O)(=O)N2C)s1 [MELOXICAM] | > 30 µM | > 10 µM | > 10 µM | > 30 µM | > 30 µM | > 10 µM | > 30 µM | – | – | – | – | –
CC(=O)/N=c1/sc(S(N)(=O)=O)nn1C [METHAZOLAMIDE] | > 10 µM | – | > 10 µM | > 10 µM | – | – | – | > 10 µM | > 10 µM | > 10 µM | > 30 µM | –
CC[C@@H](CO)NC(=O)[C@@H]1C=C2c3cccc4[nH]cc(c34)C[C@H]2N(C)C1 [METHYLERGONOVINE] | > 30 µM | – | – | – | – | 0.0037 µM | – | – | – | – | – | –
CC(=O)Oc1ccccc1C(=O)Nc1ncc([N+](=O)[O-])s1 [NITAZOXANIDE] | > 30 µM | – | – | – | – | – | – | > 30 µM | > 30 µM | 8 µM | 13 µM | –
CNCCC=C1c2ccccc2CCc2ccccc21 [NORTRIPTYLINE] | > 30 µM | 0.386 µM | – | – | – | – | – | – | – | – | – | –
COc1ccnc(C[S+]([O-])c2nc3ccc(OC(F)F)cc3[nH]2)c1OC (stereo not given) [PANTOPRAZOLE] | > 30 µM | > 10 µM | > 10 µM | > 30 µM | > 30 µM | > 10 µM | > 30 µM | – | – | – | – | –
CNC(=O)c1cc(Oc2ccc(NC(=O)Nc3ccc(Cl)c(C(F)(F)F)c3)c(F)c2)ccn1 [REGORAFENIB] | – | – | – | – | – | – | – | > 30 µM | > 30 µM | – | – | –
NC(=O)c1ncn([C@@H]2O[C@H](CO)[C@@H](O)[C@H]2O)n1 [RIBAVIRIN] | – | – | > 10 µM | > 10 µM | – | – | – | – | – | – | – | –
O=C(Nc1c(Cl)cncc1Cl)c1ccc(OC(F)F)c(OCC2CC2)c1 [ROFLUMILAST] | > 30 µM | – | – | – | – | – | – | > 30 µM | > 30 µM | > 30 µM | > 30 µM | –
CC[C@H]1OC(=O)[C@H](C)[C@@H](O[C@H]2C[C@@](C)(OC)[C@@H](O)[C@H](C)O2)[C@H](C)[C@@H](O[C@@H]2O[C@H](C)C[C@H](N(C)C)[C@H]2O)[C@](C)(O)C[C@@H](C)/C(=N\OCOCCOC)[C@H](C)[C@@H](O)[C@]1(C)O [ROXITHROMYCIN] | – | – | – | – | – | – | – | – | – | – | – | > 30 µM
CC(C)N(CCCCOCC(=O)NS(C)(=O)=O)c1cnc(-c2ccccc2)c(-c2ccccc2)n1 [SELEXIPAG] | > 30 µM | – | – | – | – | – | – | > 30 µM | > 30 µM | > 30 µM | > 30 µM | –
CCCCNc1ccc(C(=O)OCCN(C)C)cc1 [TETRACAINE] | – | > 10 µM | > 10 µM | > 30 µM | > 30 µM | 1.42 µM | > 30 µM | – | – | – | – | –
Cn1c(=O)c2[nH]cnc2n(C)c1=O [THEOPHYLLINE] | – | > 10 µM | > 10 µM | > 30 µM | > 30 µM | – | – | – | – | – | – | –
CC1(C)O[C@@H]2[C@@H](CO[C@@]3(COS(N)(=O)=O)OC(C)(C)O[C@@H]23)O1 [TOPIRAMATE] | > 30 µM | > 10 µM | > 10 µM | > 30 µM | > 30 µM | > 10 µM | > 30 µM | – | > 10 µM | > 10 µM | – | –
Cc1cc(CC(=O)O)n(C)c1C(=O)c1ccc(Cl)cc1 [ZOMEPIRAC] | – | – | – | – | – | – | – | > 30 µM | > 30 µM | > 30 µM | > 30 µM | –
